{"source": "patent US12493040B2", "about": "“Cancer detection method using sense of smell of nematode” (HIROTSU BIO SCIENCE INC., priority 2013, dated 2025)", "system": "RNAi-treated eri-1 (mg366) nematodes", "test": "RNAi screening of olfactory receptor genes: chemotaxis assay of RNAi-treated nematodes to odorants", "type": "in vivo, Caenorhabditis elegans", "conditions": "low concentration of attractant", "summary_of_the_method": "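Chemotaxis of adult RNAi-fed eri-1 (mg366) nematodes (30–50 per test) was measured toward low (1 μl, 10^−3 or 10^−4 dilution) or high (1 and 5 μl neat) odorant doses. Knockdown: 4 days feeding on E. coli from Ahringer library with IPTG and ampicillin. Differences called by z score at ±1.96, weaker cutoff ±0.96.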"}
{"smiles": "CCC(=O)C(C)=O", "note": "[pentanedione]", "values": [{"measurement": "chemotaxis index", "setting": "Control nematodes", "value": "0.49 ± 0.020"}, {"measurement": "chemotaxis index", "setting": "srh-10 RNAi-treated nematodes", "value": 0.68}, {"measurement": "chemotaxis index", "setting": "srh-11 RNAi-treated nematodes", "value": 0.75}, {"measurement": "chemotaxis index", "setting": "srh-15 RNAi-treated nematodes", "value": 0.44}, {"measurement": "chemotaxis index", "setting": "srh-16 RNAi-treated nematodes", "value": 0.95}, {"measurement": "chemotaxis index", "setting": "srh-18 RNAi-treated nematodes", "value": 0.96}, {"measurement": "chemotaxis index", "setting": "srh-19 RNAi-treated nematodes", "value": 0.64}, {"measurement": "chemotaxis index", "setting": "srh-22 RNAi-treated nematodes", "value": 0.42}, {"measurement": "chemotaxis index", "setting": "srh-23 RNAi-treated nematodes", "value": 0.48}, {"measurement": "chemotaxis index", "setting": "srh-24 RNAi-treated nematodes", "value": 0.59}, {"measurement": "chemotaxis index", "setting": "srh-25 RNAi-treated nematodes", "value": 0.95}, {"measurement": "chemotaxis index", "setting": "srh-27 RNAi-treated nematodes", "value": 0.27}, {"measurement": "chemotaxis index", "setting": "srh-28 RNAi-treated nematodes", "value": 0.22}, {"measurement": "chemotaxis index", "setting": "srh-36 RNAi-treated nematodes", "value": 0.26}, {"measurement": "chemotaxis index", "setting": "srh-37 RNAi-treated nematodes", "value": 0.60}, {"measurement": "chemotaxis index", "setting": "srh-39 RNAi-treated nematodes", "value": "−0.24"}, {"measurement": "chemotaxis index", "setting": "srh-40 RNAi-treated nematodes", "value": 0.47}, {"measurement": "chemotaxis index", "setting": "srh-41 RNAi-treated nematodes", "value": 0.57}, {"measurement": "chemotaxis index", "setting": "srh-44 RNAi-treated nematodes", "value": 0.52}, {"measurement": "chemotaxis index", "setting": "srh-45 RNAi-treated nematodes", "value": 0.26}, {"measurement": "chemotaxis index", "setting": "srh-46 RNAi-treated nematodes", "value": 0.03}, {"measurement": "chemotaxis index", "setting": "srh-48 RNAi-treated nematodes", "value": 0.38}, {"measurement": "chemotaxis index", "setting": "srh-49 RNAi-treated nematodes", "value": 0.60}, {"measurement": "chemotaxis index", "setting": "srh-50 RNAi-treated nematodes", "value": 0.53}, {"measurement": "chemotaxis index", "setting": "srh-51 RNAi-treated nematodes", "value": 0.63}, {"measurement": "chemotaxis index", "setting": "srh-52 RNAi-treated nematodes", "value": 0.51}, {"measurement": "chemotaxis index", "setting": "srh-55 RNAi-treated nematodes", "value": 0.49}, {"measurement": "chemotaxis index", "setting": "srh-59 RNAi-treated nematodes", "value": "−0.14"}, {"measurement": "chemotaxis index", "setting": "srh-60 RNAi-treated nematodes", "value": 0.22}, {"measurement": "chemotaxis index", "setting": "srh-61 RNAi-treated nematodes", "value": 0.40}, {"measurement": "chemotaxis index", "setting": "srh-67 RNAi-treated nematodes", "value": 0.41}, {"measurement": "chemotaxis index", "setting": "srh-68 RNAi-treated nematodes", "value": 0.21}, {"measurement": "chemotaxis index", "setting": "srh-69 RNAi-treated nematodes", "value": 0.13}, {"measurement": "chemotaxis index", "setting": "srh-70 RNAi-treated nematodes", "value": 0.25}, {"measurement": "chemotaxis index", "setting": "srh-71 RNAi-treated nematodes", "value": 0.14}, {"measurement": "chemotaxis index", "setting": "srh-72 RNAi-treated nematodes", "value": 0.29}, {"measurement": "chemotaxis index", "setting": "srh-74 RNAi-treated nematodes", "value": 0.42}, {"measurement": "chemotaxis index", "setting": "srh-75 RNAi-treated nematodes", "value": 0.53}, {"measurement": "chemotaxis index", "setting": "srh-77 RNAi-treated nematodes", "value": 0.32}, {"measurement": "chemotaxis index", "setting": "srh-79 RNAi-treated nematodes", "value": 0.53}, {"measurement": "chemotaxis index", "setting": "srh-80 RNAi-treated nematodes", "value": 0.41}, {"measurement": "chemotaxis index", "setting": "srh-82 RNAi-treated nematodes", "value": 0.49}, {"measurement": "chemotaxis index", "setting": "srh-83 RNAi-treated nematodes", "value": 0.72}, {"measurement": "chemotaxis index", "setting": "srh-97 RNAi-treated nematodes", "value": 0.74}, {"measurement": "chemotaxis index", "setting": "srh-99 RNAi-treated nematodes", "value": 0.54}, {"measurement": "chemotaxis index", "setting": "srh-100 RNAi-treated nematodes", "value": 0.35}, {"measurement": "chemotaxis index", "setting": "srh-104 RNAi-treated nematodes", "value": "−0.30"}, {"measurement": "chemotaxis index", "setting": "srh-105 RNAi-treated nematodes", "value": 0.27}, {"measurement": "chemotaxis index", "setting": "srh-109 RNAi-treated nematodes", "value": 0.65}, {"measurement": "chemotaxis index", "setting": "srh-111 RNAi-treated nematodes", "value": 0.39}, {"measurement": "chemotaxis index", "setting": "srh-113 RNAi-treated nematodes", "value": 0.14}, {"measurement": "chemotaxis index", "setting": "srh-115 RNAi-treated nematodes", "value": 0.39}, {"measurement": "chemotaxis index", "setting": "srh-116 RNAi-treated nematodes", "value": 0.22}, {"measurement": "chemotaxis index", "setting": "srh-118 RNAi-treated nematodes", "value": 0.44}, {"measurement": "chemotaxis index", "setting": "srh-119 RNAi-treated nematodes", "value": 0.18}, {"measurement": "chemotaxis index", "setting": "srh-120 RNAi-treated nematodes", "value": 0.80}, {"measurement": "chemotaxis index", "setting": "srh-122 RNAi-treated nematodes", "value": 0.24}, {"measurement": "chemotaxis index", "setting": "srh-123 RNAi-treated nematodes", "value": 0.30}, {"measurement": "chemotaxis index", "setting": "srh-125 RNAi-treated nematodes", "value": 0.08}, {"measurement": "chemotaxis index", "setting": "srh-128 RNAi-treated nematodes", "value": 0.49}, {"measurement": "chemotaxis index", "setting": "srh-129 RNAi-treated nematodes", "value": 0.15}, {"measurement": "chemotaxis index", "setting": "srh-130 RNAi-treated nematodes", "value": 0.36}, {"measurement": "chemotaxis index", "setting": "srh-214 RNAi-treated nematodes", "value": 0.88}, {"measurement": "chemotaxis index", "setting": "srh-216 RNAi-treated nematodes", "value": 0.65}, {"measurement": "chemotaxis index", "setting": "srh-217 RNAi-treated nematodes", "value": 0.92}, {"measurement": "chemotaxis index", "setting": "srh-220 RNAi-treated nematodes", "value": 0.67}, {"measurement": "chemotaxis index", "setting": "srh-222 RNAi-treated nematodes", "value": 0.46}, {"measurement": "chemotaxis index", "setting": "srh-223 RNAi-treated nematodes", "value": 0.23}, {"measurement": "chemotaxis index", "setting": "srh-227 RNAi-treated nematodes", "value": 0.60}, {"measurement": "chemotaxis index", "setting": "srh-229 RNAi-treated nematodes", "value": 0.12}, {"measurement": "chemotaxis index", "setting": "srh-233 RNAi-treated nematodes", "value": 0.33}, {"measurement": "chemotaxis index", "setting": "srh-235 RNAi-treated nematodes", "value": 0.51}, {"measurement": "chemotaxis index", "setting": "srh-236 RNAi-treated nematodes", "value": 0.37}, {"measurement": "chemotaxis index", "setting": "srh-239 RNAi-treated nematodes", "value": 0.49}, {"measurement": "chemotaxis index", "setting": "srh-241 RNAi-treated nematodes", "value": 0.63}, {"measurement": "chemotaxis index", "setting": "srh-243 RNAi-treated nematodes", "value": 0.00}, {"measurement": "chemotaxis index", "setting": "srh-244 RNAi-treated nematodes", "value": 0.19}, {"measurement": "chemotaxis index", "setting": "srh-247 RNAi-treated nematodes", "value": 0.38}, {"measurement": "chemotaxis index", "setting": "srh-250 RNAi-treated nematodes", "value": 0.58}, {"measurement": "chemotaxis index", "setting": "srh-251 RNAi-treated nematodes", "value": 0.32}, {"measurement": "chemotaxis index", "setting": "srh-252 RNAi-treated nematodes", "value": 0.65}, {"measurement": "chemotaxis index", "setting": "srh-258 RNAi-treated nematodes", "value": 0.35}, {"measurement": "chemotaxis index", "setting": "srh-261 RNAi-treated nematodes", "value": 0.27}, {"measurement": "chemotaxis index", "setting": "srh-264 RNAi-treated nematodes", "value": 0.46}, {"measurement": "chemotaxis index", "setting": "srh-266 RNAi-treated nematodes", "value": 0.00}, {"measurement": "chemotaxis index", "setting": "srh-274 RNAi-treated nematodes", "value": 0.82}, {"measurement": "chemotaxis index", "setting": "srh-275 RNAi-treated nematodes", "value": 0.57}, {"measurement": "chemotaxis index", "setting": "srh-276 RNAi-treated nematodes", "value": 0.45}, {"measurement": "chemotaxis index", "setting": "srh-277 RNAi-treated nematodes", "value": 0.83}, {"measurement": "chemotaxis index", "setting": "srh-279 RNAi-treated nematodes", "value": 0.55}, {"measurement": "chemotaxis index", "setting": "srh-281 RNAi-treated nematodes", "value": 0.64}, {"measurement": "chemotaxis index", "setting": "srh-282 RNAi-treated nematodes", "value": 0.73}, {"measurement": "chemotaxis index", "setting": "srh-283 RNAi-treated nematodes", "value": 0.15}, {"measurement": "chemotaxis index", "setting": "srh-284 RNAi-treated nematodes", "value": 0.36}, {"measurement": "chemotaxis index", "setting": "srh-291 RNAi-treated nematodes", "value": 0.48}, {"measurement": "chemotaxis index", "setting": "srh-292 RNAi-treated nematodes", "value": 0.52}, {"measurement": "chemotaxis index", "setting": "srh-293 RNAi-treated nematodes", "value": 0.00}, {"measurement": "chemotaxis index", "setting": "srh-297 RNAi-treated nematodes", "value": 0.32}, {"measurement": "chemotaxis index", "setting": "srh-298 RNAi-treated nematodes", "value": 0.68}, {"measurement": "chemotaxis index", "setting": "srh-308 RNAi-treated nematodes", "value": 0.39}]}
